From PubChem BioAssay (NCI)
Several values for one entry are separate records, joined by “and”; a condition that tells them apart may be missing. Equal entries are not always repeated.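 Interpolation was linear, between the two tested concentrations surrounding the appropriate level; five concentrations were tested over 48 hours in 96-well plates. The concentration for full growth arrest is given as TGI.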

Tests used:
Experiment in all cases: growth of human tumour cells (NCI), 48 h
OVCAR-8 ovarian = test system: OVCAR-8 ovarian
DU-145 prostate = test system: DU-145 prostate
HT29 colon = test system: HT29 colon
HS 578T breast = test system: HS 578T breast
M14 melanoma = test system: M14 melanoma
CAKI-1 renal = test system: CAKI-1 renal
SK-OV-3 ovarian = test system: SK-OV-3 ovarian
COLO 205 colon = test system: COLO 205 colon
PC-3 prostate = test system: PC-3 prostate
SK-MEL-5 melanoma = test system: SK-MEL-5 melanoma
A549 NSCLC = test system: A549 NSCLC
NCI-H23 lung = test system: NCI-H23 lung
HCT-15 colon = test system: HCT-15 colon
SF-295 CNS = test system: SF-295 CNS
OVCAR-5 ovarian = test system: OVCAR-5 ovarian
OVCAR-3 ovarian = test system: OVCAR-3 ovarian
786-0 renal = test system: 786-0 renal
IGROV1 ovarian = test system: IGROV1 ovarian
HCT-116 colon = test system: HCT-116 colon
SNB-75 CNS = test system: SNB-75 CNS

Question: For `CC(=O)OCC1OC(n2c(N)c(C#N)c(C)c(C#N)c2=S)C(OC(C)=O)C(OC(C)=O)C1OC(C)=O` (stereo not given), which TGI (OVCAR-8 ovarian) is on record?
Answer: > 100 µM

Question: What about the TGI (DU-145 prostate) of the same compound?
Answer: > 100 µM

Question: And the TGI (HT29 colon)?
Answer: > 100 µM

Question: What about the TGI (HS 578T breast) of the same compound?
Answer: > 100 µM

Question: And the TGI (M14 melanoma)?
Answer: > 100 µM

Question: And the TGI (CAKI-1 renal)?
Answer: > 100 µM

Question: And the TGI (SK-OV-3 ovarian)?
Answer: > 100 µM

Question: What about the TGI (COLO 205 colon) of the same compound?
Answer: > 100 µM

Question: And the TGI (PC-3 prostate)?
Answer: > 100 µM

Question: And the TGI (SK-MEL-5 melanoma)?
Answer: > 100 µM

Question: And the TGI (A549 NSCLC)?
Answer: > 100 µM

Question: What about the TGI (NCI-H23 lung) of the same compound?
Answer: > 100 µM

Question: What about the TGI (HCT-15 colon) of the same compound?
Answer: > 100 µM

Question: And the TGI (SF-295 CNS)?
Answer: > 100 µM

Question: What about the TGI (OVCAR-5 ovarian) of the same compound?
Answer: > 100 µM

Question: And the TGI (OVCAR-3 ovarian)?
Answer: > 100 µM

Question: And the TGI (786-0 renal)?
Answer: > 100 µM

Question: What about the TGI (IGROV1 ovarian) of the same compound?
Answer: > 100 µM

Question: And the TGI (HCT-116 colon)?
Answer: > 100 µM

Question: What about the TGI (SNB-75 CNS) of the same compound?
Answer: > 100 µM

Question: With `c1ccc(-c2c3c(nc4c2CC[C@H]4NC2=NCCN2)[C@@H](NC2=NCCN2)CC3)cc1` as the compound, how does the TGI (OVCAR-8 ovarian) read?
Answer: > 100 µM

Question: What about the TGI (DU-145 prostate) of the same compound?
Answer: > 100 µM

Question: And the TGI (HT29 colon)?
Answer: > 100 µM

Question: And the TGI (HS 578T breast)?
Answer: > 100 µM

Question: What about the TGI (M14 melanoma) of the same compound?
Answer: > 100 µM

Question: What about the TGI (CAKI-1 renal) of the same compound?
Answer: > 100 µM

Question: And the TGI (SK-OV-3 ovarian)?
Answer: > 100 µM

Question: And the TGI (COLO 205 colon)?
Answer: > 100 µM

Question: What about the TGI (PC-3 prostate) of the same compound?
Answer: > 100 µM

Question: And the TGI (SK-MEL-5 melanoma)?
Answer: > 100 µM

Question: What about the TGI (A549 NSCLC) of the same compound?
Answer: > 100 µM

Question: And the TGI (NCI-H23 lung)?
Answer: > 100 µM

Question: What about the TGI (HCT-15 colon) of the same compound?
Answer: > 100 µM

Question: And the TGI (SF-295 CNS)?
Answer: > 100 µM

Question: What about the TGI (OVCAR-5 ovarian) of the same compound?
Answer: > 100 µM

Question: And the TGI (OVCAR-3 ovarian)?
Answer: > 100 µM

Question: And the TGI (786-0 renal)?
Answer: > 100 µM

Question: What about the TGI (IGROV1 ovarian) of the same compound?
Answer: > 100 µM

Question: And the TGI (HCT-116 colon)?
Answer: > 100 µM

Question: And the TGI (SNB-75 CNS)?
Answer: > 100 µM

Question: `CC1OC(OC2C(OC(=O)[C@]34CCC(C)(C)C[C@H]3C3=CC[C@@H]5[C@@]6(C)CC[C@H](OC7OC(CO)C(O)C(O)C7OC7OC(CO)C(O)C(O)C7O)C(C)(C)[C@@H]6CC[C@@]5(C)[C@]3(C)CC4)OCC(O)C2O)C(O)C(O)C1OC1OCC(O)C(OC2OCC(O)C(O)C2O)C1O` (stereo not given in full) was tested. Which TGI (OVCAR-8 ovarian) did it give?
Answer: 26.9 µM and 21.7 µM

Question: And the TGI (DU-145 prostate)?
Answer: 19.2 µM and 20.8 µM

Question: What about the TGI (HT29 colon) of the same compound?
Answer: 10.8 µM and 9.01 µM

Question: And the TGI (HS 578T breast)?
Answer: 30.3 µM and 29.3 µM

Question: What about the TGI (M14 melanoma) of the same compound?
Answer: 3.98 µM and 3.49 µM

Question: And the TGI (CAKI-1 renal)?
Answer: 15.8 µM and 15.3 µM

Question: What about the TGI (SK-OV-3 ovarian) of the same compound?
Answer: 25.6 µM and 26.5 µM

Question: What about the TGI (COLO 205 colon) of the same compound?
Answer: 3.42 µM and 6.5 µM

Question: And the TGI (PC-3 prostate)?
Answer: 17.8 µM and 19.1 µM

Question: What about the TGI (SK-MEL-5 melanoma) of the same compound?
Answer: 8.11 µM and 10.3 µM

Question: What about the TGI (A549 NSCLC) of the same compound?
Answer: 10.2 µM and 9.72 µM

Question: And the TGI (NCI-H23 lung)?
Answer: 8.52 µM and 6.54 µM

Question: And the TGI (HCT-15 colon)?
Answer: 27 µM and 26.8 µM

Question: What about the TGI (SF-295 CNS) of the same compound?
Answer: 13.1 µM and 10.7 µM

Question: And the TGI (OVCAR-5 ovarian)?
Answer: 16.7 µM and 16 µM

Question: And the TGI (OVCAR-3 ovarian)?
Answer: 22.3 µM and 34.6 µM

Question: And the TGI (786-0 renal)?
Answer: 18.9 µM and 19.7 µM

Question: And the TGI (IGROV1 ovarian)?
Answer: 26.4 µM and 24.3 µM

Question: And the TGI (HCT-116 colon)?
Answer: 16.7 µM and 14 µM

Question: And the TGI (SNB-75 CNS)?
Answer: 17 µM and 20.8 µM
